The subject of data set [1] is Botryotinia fuckeliana (Botrytis cinerea). Put plainly: Botryotinia fuckeliana (Botrytis cinerea) / liquid culture (gray mould). The format is cell-based. As to conditions: 72 h, read-out: control of Botryotinia fuckeliana.
Data set [2] concerns Fusarium culmorum. Put plainly: microbe, parasite or virus in culture. As to conditions: read-out: control of Fusarium culmorum. Type of data set: cell-based.
Data set [3] relates to Glomerella lagenarium (Colletotrichum lagenarium). In words: Glomerella lagenarium (Colletotrichum lagenarium) / liquid culture (anthracnose). Type of data set: cell-based. To be noted: Colletotrichum orbiculare; read-out: control of Glomerella lagenarium.
Data set [4] relates to Fusarium culmorum. Put plainly: whole plant or invertebrate. Type of data set: in vivo. To be noted: in Triticum aestivum, read-out: control of Fusarium culmorum.

What is called melting point is the temperature of the solid-liquid transition. Molecule `CC(C)CC(C)(Cc1ccccc1)NC(=O)c1cnc2c(C#N)cccc2c1` (stereo not drawn) had a melting point of 160 to 162 °C.
Molecule `CC(C)(Cc1ccccc1OC(F)(F)F)NC(=O)c1cnc2ccccc2c1` [Compound E-3, N-[1,1-dimethyl-2-[2-(trifluoromethoxy)phenyl]ethyl]quinoline-3-carboxamide] had a melting point of 145 to 149 °C. The inhibition of growth at 200 ppm in data set [1] was not below 80%.
For `CC(C#N)(Cc1ccccc1F)NC(=O)c1cnc2ccccc2c1` (stereo not drawn) [Compound E-4, N-[1-cyano-2-(2-fluorophenyl)-1-methyl-ethyl]quinoline-3-carboxamide], the melting point lay in the range of 134 to 139 °C. Moreover, the inhibition of growth at 200 ppm in the data set on Fusarium culmorum [2] is not below 80%.
With `CC(C#N)(Cc1ccccc1Cl)NC(=O)c1cnc2c(F)cccc2c1` (stereo not drawn) [Compound E-18, N-[2-(2-chlorophenyl)-1-cyano-1-methyl-ethyl]-8-fluoro-quinoline-3-carboxamide], the melting point is 198 to 203 °C. Moreover, the inhibition of growth at 200 ppm in data set [1] was not below 80%. In addition, the inhibition of growth at 200 ppm in the data set on Fusarium culmorum [2] was not below 80%.
`COc1ccc2ncc(C(=O)NC(C)(Cc3ccccc3)CC(C)C)cc2c1` (stereo not drawn) [Compound E-63, N-(1-benzyl-1,3-dimethyl-butyl)-6-methoxy-quinoline-3-carboxamide] came in with a melting point of 102 to 105 °C. In addition, in data set [1], the inhibition of growth at 200 ppm is not below 80%.
For the molecule `CC(C)CC(C)(Cc1ccccc1)NC(=O)c1cnc2cccc(Cl)c2c1` (stereo not drawn) [Compound E-64, N-(1-benzyl-1,3-dimethyl-butyl)-5-chloro-quinoline-3-carboxamide], the melting point lay in the range of 50 to 60 °C. In addition, in data set [1], the inhibition of growth at 200 ppm was not below 80%. Further, the inhibition of growth at 200 ppm in the data set with Fusarium culmorum [2] is not below 80%.
The molecule `CC(Cc1ccccc1)(CC(F)(F)F)NC(=O)c1cnc2cccc(Cl)c2c1` (stereo not drawn) [Compound E-68, N-(1-benzyl-3,3,3-trifluoro-1-methyl-propyl)-5-chloro-quinoline-3-carboxamide] came in with a melting point of 85 to 88 °C. Also, the inhibition of growth at 200 ppm in the data set with Fusarium culmorum [2] was not below 80%.
In the case of `CC(C)CC(C)(Cc1ccccc1)NC(=O)c1cnc2cccc(O)c2c1` (stereo not drawn) [Compound E-87, N-(1-benzyl-1,3-dimethyl-butyl)-5-hydroxy-quinoline-3-carboxamide], the melting point lay within 90 to 95 °C. In addition, in data set [1], the inhibition of growth at 200 ppm was not below 80%. Moreover, the inhibition of growth at 200 ppm in data set [3] is not below 80%. Further, the inhibition of growth at 200 ppm in the data set with Fusarium culmorum [2] was not below 80%.
`Cc1nc2c(Cl)cccc2cc1C(=O)NC(C)(Cc1ccccc1)CC(F)(F)F` (stereo not drawn) [Compound E-110, N-(1-benzyl-3,3,3-trifluoro-1-methyl-propyl)-8-chloro-2-methyl-quinoline-3-carboxamide] came in with a melting point of 176 to 179 °C. Moreover, in data set [1], the inhibition of growth at 200 ppm was not below 80%. The inhibition of growth at 200 ppm in the data set on Fusarium culmorum [2] was not below 80%.
The molecule `CC(Cc1ccccc1)(CC1CCC1)NC(=O)c1cnc2ccccc2c1` (stereo not drawn) [Compound E-111, N-(1-benzyl-2-cyclobutyl-1-methyl-ethyl)quinoline-3-carboxamide] yielded a melting point of 88 to 90 °C. The inhibition of growth at 200 ppm in data set [1] was not below 80%. In addition, the inhibition of growth at 200 ppm in data set [3] is not below 80%. The inhibition of growth at 200 ppm in the data set on Fusarium culmorum [2] was not below 80%.
As for `CC(Cc1ccccc1)(CC(F)(F)F)NC(=S)c1cnc2c(F)cccc2c1` (stereo not drawn) [Compound E-115, N-(1-benzyl-3,3,3-trifluoro-1-methyl-propyl)-8-fluoro-quinoline-3-carbothioamide], the melting point fell in the range of 173 to 175 °C. In addition, the inhibition of growth at 200 ppm in data set [1] is not below 80%. Moreover, the inhibition of growth at 200 ppm in data set [3] is not below 80%. For the same molecule, the inhibition of growth at 200 ppm in the data set with Fusarium culmorum [2] was not below 80%.
Consider `CC(C)C[C@](C)(Cc1ccccc1)NC(=O)c1cnc2cc(F)ccc2c1` [Compound F-13, N-[(1R)-1-benzyl-1,3-dimethyl-butyl]-7-fluoro-quinoline-3-carboxamide], for which the inhibition of growth at 200 ppm (in data set [1]; in data set [3]; in the data set with Fusarium culmorum [2]) was not below 80% throughout. Besides, the pest or weed control at 200 ppm with Fusarium culmorum [4] was not below 80%.
For the molecule `CC(C)C[C@@](C)(Cc1ccccc1)NC(=O)c1cnc2cc(F)ccc2c1` [Compound F-14, N-[(1S)-1-benzyl-1,3-dimethyl-butyl]-7-fluoro-quinoline-3-carboxamide], the inhibition of growth at 200 ppm (in data set [1]; in data set [3]; in the data set with Fusarium culmorum [2]) was not below 80% each time. Besides, the pest or weed control at 200 ppm in the data set on Fusarium culmorum [4] is not below 80%.
With `C=C(C)C[C@@](C)(Cc1ccccc1)NC(=O)c1cnc2c(F)c(F)ccc2c1` [Compound F-19, N-[(1S)-1-benzyl-1,3-dimethyl-but-3-enyl]-7,8-difluoro-quinoline-3-carboxamide], the inhibition of growth at 200 ppm (in data set [1]; in data set [3]; in the data set on Fusarium culmorum [2]) was not below 80% in each case. Further, in the data set on Fusarium culmorum [4], the pest or weed control at 200 ppm was not below 80%.
Take `CC(C)C[C@](C)(Cc1ccccc1)NC(=O)c1cnc2c(F)c(F)ccc2c1` [Compound F-21, N-[(1R)-1-benzyl-1,3-dimethyl-butyl]-7,8-difluoro-quinoline-3-carboxamide]: the inhibition of growth at 200 ppm (in data set [1]; in data set [3]; in the data set on Fusarium culmorum [2]) was not below 80% throughout. Besides, in the data set with Fusarium culmorum [4], the pest or weed control at 200 ppm is not below 80%.
On to `Cc1cccc2cc(C(=O)N[C@](C)(Cc3ccccc3)CC(F)(F)F)cnc12` [Compound F-28, N-[(1R)-1-benzyl-3,3,3-trifluoro-1-methyl-propyl]-8-methyl-quinoline-3-carboxamide], for which the inhibition of growth at 200 ppm (in data set [1]; in data set [3]; in the data set on Fusarium culmorum [2]) was not below 80% throughout. The pest or weed control at 200 ppm in the data set on Fusarium culmorum [4] was not below 80%.
With `C[C@@](Cc1ccccc1)(CC(F)F)NC(=O)c1cnc2c(F)cccc2c1` [Compound F-31, N-[(1R)-1-benzyl-3,3-difluoro-1-methyl-propyl]-8-fluoro-quinoline-3-carboxamide], the inhibition of growth at 200 ppm (in data set [1]; in data set [3]; with Fusarium culmorum [2]) was not below 80% each time. The pest or weed control at 200 ppm in the data set with Fusarium culmorum [4] is not below 80%.
Turning to `Cc1nc2c(F)cccc2cc1C(=O)N[C@@](C)(Cc1ccccc1)CC(F)(F)F` [Compound F-33, N-[(1S)-1-benzyl-3,3,3-trifluoro-1-methyl-propyl]-8-fluoro-2-methyl-quinoline-3-carboxamide], the inhibition of growth at 200 ppm (in data set [1]; in data set [3]; in the data set with Fusarium culmorum [2]) was not below 80% in each case. For the same molecule, in the data set on Fusarium culmorum [4], the pest or weed control at 200 ppm was not below 80%.
In the case of `C[C@](Cc1ccccc1)(CC(F)(F)F)NC(=O)c1cnc2c(Cl)cccc2c1` [Compound F-35, N-[(1S)-1-benzyl-3,3,3-trifluoro-1-methyl-propyl]-8-chloro-quinoline-3-carboxamide], the inhibition of growth at 200 ppm (in data set [1]; in data set [3]; with Fusarium culmorum [2]) was not below 80% throughout. Further, the pest or weed control at 200 ppm in the data set with Fusarium culmorum [4] is not below 80%.
`C[C@@](Cc1ccccc1)(CC(F)(F)F)NC(=O)c1cnc2c(Cl)cccc2c1` [Compound F-36, N-[(1R)-1-benzyl-3,3,3-trifluoro-1-methyl-propyl]-8-chloro-quinoline-3-carboxamide]: the inhibition of growth at 200 ppm (in data set [1]; in data set [3]; in the data set with Fusarium culmorum [2]) was not below 80% each time. Moreover, the pest or weed control at 200 ppm with Fusarium culmorum [4] was not below 80%.

The values are drawn from US10477864B2, “Microbiocidal quinoline (thio)carboxamide derivatives” (priority 2016, dated 2019).
